≈ marks a conversion by molar mass, not a printed value.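 Cultured in 96-well plates, cells were exposed to test compound for 48 hours across five concentrations. GI50 marks 50% less growth. TGI: concentration producing complete growth inhibition.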
Assays:
Test in all cases: growth of human tumour cells (NCI), 48 h
[1] = system: EKVX NSCLC
[2] = system: M14 melanoma
[3] = system: SNB-19 CNS
[4] = system: UO-31 renal
[5] = system: RXF 393 renal
[6] = system: HCT-15 colon
[7] = system: SR leukemia
[8] = system: SW-620 colon
[9] = system: HT29 colon
[10] = system: BT-549 breast
[11] = system: TK-10 renal
[12] = system: CAKI-1 renal
[13] = system: SF-268 CNS
[14] = system: HCT-116 colon
[15] = system: MCF7 breast
[16] = system: COLO 205 colon
[17] = system: NCI/ADR-RES ovarian
[18] = system: SK-OV-3 ovarian
[19] = system: PC-3 prostate
[20] = system: OVCAR-3 ovarian
[21] = system: MDA-N
[22] = system: NCI-H23 lung
[23] = system: OVCAR-8 ovarian
[24] = system: IGROV1 ovarian
[25] = system: 786-0 renal
[26] = system: MALME-3M melanoma
[27] = system: SF-539 CNS
[28] = system: UACC-62 melanoma
[29] = system: A549 NSCLC
[30] = system: NCI-H522 lung
[31] = system: A498 renal
[32] = system: LOX IMVI melanoma
[33] = system: SK-MEL-2 melanoma
[34] = system: MOLT-4 leukemia
[35] = system: KM12 colon
[36] = system: SF-295 CNS
[37] = system: RPMI-8226 leukemia
[38] = system: SK-MEL-5 melanoma
[39] = system: MDA-MB-435
[40] = system: CCRF-CEM leukemia
[41] = system: HCC-2998 colon
[42] = system: SK-MEL-28 melanoma
[43] = system: OVCAR-4 ovarian
[44] = system: ACHN renal
[45] = system: SN12C renal
[46] = system: U251 CNS
[47] = system: MDA-MB-231 breast
[48] = system: SNB-75 CNS
[49] = system: DU-145 prostate
[50] = system: HOP-62 NSCLC
[51] = system: OVCAR-5 ovarian
[52] = system: K-562 leukemia
[53] = system: UACC-257 melanoma
[54] = system: NCI-H226 lung
[55] = system: HL-60(TB) leukemia
[56] = system: HS 578T breast
[57] = system: NCI-H460 lung
[58] = system: HOP-92 NSCLC

COC(=O)C([C@H]1CC[C@H](OCc2ccccc2)[C@@]1(O)COCc1ccccc1)C(C)(O)CCc1ccccc1 (some centres not stated)
TGI [1]: 38.2 µM | TGI [2]: 22.9 µM | TGI [3]: > 100 µM | TGI [4]: 23.7 µM | TGI [5]: 25.9 µM | TGI [6]: 37.4 µM | TGI [7]: 26.4 µM | TGI [8]: 28.9 µM | TGI [9]: 22.2 µM | TGI [10]: 30.8 µM | TGI [11]: 39.9 µM | TGI [12]: > 100 µM | TGI [13]: 22 µM | TGI [14]: 24.2 µM | TGI [15]: 25.3 µM | TGI [16]: 25.8 µM | TGI [17]: 26.5 µM | TGI [18]: > 100 µM | TGI [19]: 16.3 µM | TGI [20]: 27.2 µM | TGI [21]: 26.6 µM | TGI [22]: 37.8 µM | TGI [23]: 41.5 µM | TGI [24]: 29.3 µM | TGI [25]: 27.4 µM | TGI [26]: 25.7 µM | TGI [27]: 29.1 µM | TGI [28]: 26.6 µM | TGI [29]: 27.1 µM | TGI [30]: 26.1 µM | TGI [31]: 28.6 µM | TGI [32]: 22.8 µM | TGI [33]: 25.3 µM | TGI [34]: 19.7 µM | TGI [35]: 16.4 µM | TGI [36]: 23.3 µM | TGI [37]: 43.3 µM | TGI [38]: 27.6 µM | TGI [39]: 29.4 µM | TGI [40]: 60.2 µM | TGI [41]: 33.2 µM | TGI [42]: 30.1 µM | TGI [43]: 43.9 µM | TGI [44]: 29.2 µM | TGI [45]: 16.2 µM | TGI [46]: 27.2 µM | TGI [47]: 26.2 µM | TGI [48]: 19.7 µM | TGI [49]: 72.7 µM | TGI [50]: 29.6 µM | TGI [51]: 27 µM | TGI [52]: 35.5 µM | TGI [53]: 35.1 µM | TGI [54]: 26.6 µM

CC(=O)OC1CCC(OC(C)=O)[C@H]2[C@@H]1[C@@H]1S[C@H]2c2ccccc21 (some centres not stated)
GI50 [1]: 54.8 µg/mL (≈ 165 µM) | GI50 [2]: 27.9 µg/mL (≈ 84 µM) | GI50 [6]: 93.7 µg/mL (≈ 282 µM) | GI50 [11]: 35.7 µg/mL (≈ 108 µM) | GI50 [16]: 59.1 µg/mL (≈ 178 µM) | GI50 [17]: 99.2 µg/mL (≈ 298 µM) | GI50 [18]: 4.09 µg/mL (≈ 12.3 µM) | GI50 [21]: 24.2 µg/mL (≈ 72.8 µM) | GI50 [25]: 85.6 µg/mL (≈ 257 µM) | GI50 [26]: 62.1 µg/mL (≈ 187 µM) | GI50 [28]: 41.4 µg/mL (≈ 124 µM) | GI50 [30]: 32.5 µg/mL (≈ 97.7 µM) | GI50 [31]: 43.9 µg/mL (≈ 132 µM) | GI50 [32]: 80.6 µg/mL (≈ 242 µM) | GI50 [55]: 22 µg/mL (≈ 66.1 µM) | GI50 [35]: 49 µg/mL (≈ 147 µM) | GI50 [36]: 36 µg/mL (≈ 108 µM) | GI50 [56]: 76.1 µg/mL (≈ 229 µM) | GI50 [39]: 21.6 µg/mL (≈ 64.9 µM) | GI50 [40]: 36.4 µg/mL (≈ 109 µM) | GI50 [41]: 50.1 µg/mL (≈ 151 µM) | GI50 [42]: 97.3 µg/mL (≈ 293 µM) | GI50 [43]: 31.3 µg/mL (≈ 94.1 µM) | GI50 [46]: 81.9 µg/mL (≈ 246 µM) | GI50 [48]: 48.1 µg/mL (≈ 145 µM) | GI50 [49]: 85.3 µg/mL (≈ 257 µM) | GI50 [52]: 35.9 µg/mL (≈ 108 µM) | GI50 [53]: 76.8 µg/mL (≈ 231 µM)

COC(=S)OC1CC(n2cnc3c(=O)[nH]cnc32)OC1CO[Si](C)(C)C(C)(C)C (configuration not stated)
TGI [1]: > 100 µM | TGI [2]: > 100 µM | TGI [3]: > 100 µM | TGI [5]: > 100 µM | TGI [6]: > 100 µM | TGI [7]: > 100 µM | TGI [8]: > 100 µM | TGI [9]: > 100 µM | TGI [11]: > 100 µM | TGI [12]: > 100 µM | TGI [13]: > 100 µM | TGI [14]: > 100 µM | TGI [15]: > 100 µM | TGI [16]: > 100 µM | TGI [17]: > 100 µM | TGI [57]: > 100 µM | TGI [18]: > 100 µM | TGI [19]: > 100 µM | TGI [20]: > 100 µM | TGI [21]: > 100 µM | TGI [22]: > 100 µM | TGI [23]: > 100 µM | TGI [24]: > 100 µM | TGI [25]: > 100 µM | TGI [26]: > 100 µM | TGI [27]: > 100 µM | TGI [28]: > 100 µM | TGI [29]: > 100 µM | TGI [30]: > 100 µM | TGI [31]: > 100 µM | TGI [32]: > 100 µM | TGI [33]: > 100 µM | TGI [34]: > 100 µM | TGI [55]: > 100 µM | TGI [35]: > 100 µM | TGI [36]: > 100 µM | TGI [37]: > 100 µM | TGI [38]: > 100 µM | TGI [56]: > 100 µM | TGI [39]: > 100 µM | TGI [40]: > 100 µM | TGI [42]: > 100 µM | TGI [43]: > 100 µM | TGI [44]: > 100 µM | TGI [45]: > 100 µM | TGI [58]: > 100 µM | TGI [46]: > 100 µM | TGI [47]: > 100 µM | TGI [48]: > 100 µM | TGI [49]: > 100 µM | TGI [50]: > 100 µM | TGI [51]: > 100 µM | TGI [52]: > 100 µM | TGI [53]: > 100 µM | TGI [54]: > 100 µM
